What all share (experiment): inhibition of tumour cell growth, NCI panel, 48 h
The test system of assay [1] is HOP-62 NSCLC.
Assay [2] has as its system SN12C renal.
Assay [3] relates to RPMI-8226 leukemia.
Assay [4] relates to SF-295 CNS.
The subject of assay [5] is UACC-62 melanoma.
Assay [6] deals with IGROV1 ovarian.
Assay [7] relates to A498 renal.
Assay [8] concerns UACC-257 melanoma.
For assay [9], the system named is KM12 colon.
For assay [10], the system named is SK-OV-3 ovarian.
Assay [11] has as its system NCI-H226 lung.
In assay [12] the test system is UO-31 renal.
Assay [13] deals with SF-539 CNS.
In assay [14] the test system is K-562 leukemia.
The test system of assay [15] is CAKI-1 renal.
For assay [16], the system named is SF-268 CNS.
In assay [17] the test system is NCI-H522 lung.
The test system of assay [18] is A549 NSCLC.
The test system of assay [19] is SK-MEL-28 melanoma.
Assay [20] has as its system ACHN renal.

Several values for one entry are separate records, joined by “and”; a condition that tells them apart may be missing. Equal entries are not always repeated.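 Following 48 hours of exposure in 96-well plates, responses at five concentrations were used to interpolate endpoints linearly. TGI denotes the concentration required for complete inhibition of growth.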

As to `O=C(NC1C=Nc2ccc([N+](=O)[O-])cc2NC1=O)c1cc(Cl)cc([N+](=O)[O-])c1` (configuration not stated), the TGI in [1], in assay [2], in assay [3], in assay [4], in assay [5] and in [6] was > 100 µM in each case. Moreover, the TGI in [7], in assay [8], in [9], in [10], in [11] and in assay [12] was > 100 µM each time. Moreover, the TGI is > 100 µM in assay [13]; > 100 µM in [14]; > 100 µM in assay [15]; > 100 µM in [16]; 67.8 µM in assay [17]; > 100 µM in [18]. Moreover, the TGI in [19] and in [20] was > 100 µM throughout.

Consider `C[n+]1c2ccccc2c(NC(CS)C(=O)O)c2ccccc21` (configuration not stated), for which the TGI in assay [1] is 73.5 µM; in assay [2], > 100 µM; in [3] it was 53.9 µM; in [4] it was 77.7 µM; in assay [5], 34.2 µM; in assay [6], > 100 µM. For the same compound, the TGI was 53 µM in [7]; 92.9 µM in assay [8]; 64.9 µM in [9]; 61 µM in [10]; > 100 µM in assay [11]; 66.6 µM in [12]. In addition, the TGI is 44 µM in assay [13]; > 100 µM in assay [14]; 97.2 µM in assay [15]; 70.2 µM in assay [16]; 42.3 µM in assay [17]; 70.1 µM in [18]. The TGI in assay [20] was > 100 µM.

In the case of `CC(C)(C)NCC(O)c1ccc(O)c(CO)n1` (configuration not stated), the TGI in assay [1], in assay [2], in assay [3], in assay [4], in [5] and in assay [6] was > 100 µM throughout. In addition, the TGI in assay [7], in assay [8], in assay [9], in assay [10], in assay [11] and in assay [12] was > 100 µM in each case. In addition, the TGI in [13], in assay [15], in [16], in [17], in assay [18] and in assay [19] was > 100 µM each time. Besides, in assay [20], the TGI was > 100 µM.

Regarding `Cc1ccc(N=Nc2ccc(N)cc2C)c(S(N)(=O)=O)c1`, the TGI in [1], in assay [2], in [3], in [4], in [5] and in assay [6] was > 100 µM each time. Moreover, the TGI in assay [7], in assay [8], in [9], in assay [10], in assay [11] and in [12] was > 100 µM in each case. Further, the TGI in assay [13], in assay [14], in assay [15], in assay [16], in assay [17] and in [18] was > 100 µM in each case. In addition, the TGI in [19] and in assay [20] was > 100 µM throughout.

`Oc1ccc(Cc2nccc3cc(O)c(O)cc23)cc1O`: the TGI in assay [1], in assay [2], in assay [3], in assay [4], in assay [5] and in assay [6] was > 100 µM throughout. Besides, the TGI was > 100 µM in assay [7]; 87.6 µM in assay [8]; > 100 µM in [9]; > 100 µM in assay [10]; > 100 µM in [11]; > 100 µM in assay [12]. Also, the TGI in assay [13], in [14], in assay [15], in assay [16], in assay [17] and in assay [18] was > 100 µM each time. In addition, the TGI in assay [19] and in assay [20] was > 100 µM in each case.

With `CC(C)(C)C(=O)CP(=O)(O)O`, the TGI in [1], in assay [2], in assay [3], in [4], in assay [5] and in assay [6] was > 100 µM in each case. Moreover, the TGI in assay [7], in assay [8], in [9], in [10], in assay [11] and in [13] was > 100 µM throughout. Besides, the TGI in [14], in [15], in assay [16], in [17], in assay [18] and in assay [19] was > 100 µM each time. Besides, the TGI in assay [20] is > 100 µM.

In the case of `C[n+]1ccc(Nc2ccc(NC(=O)c3ccc(Nc4cc[n+](C)c5ccc([N+](=O)[O-])cc45)cc3[N+](=O)[O-])cc2)cc1`, the TGI in assay [1] is 84.9 µM and > 100 µM; in assay [2], > 100 µM; in [3] it was > 100 µM; in [4], 63.6 µM and 60 µM; in assay [5], > 90.4 µM and 63.6 µM; in assay [6] it was > 100 µM. Besides, the TGI in assay [7] is > 94.1 µM; in assay [8] it was > 100 µM; in assay [9] it was > 100 µM; in assay [10], > 100 µM; in [11], 99.7 µM and > 100 µM; in assay [12], 98.9 µM and > 79.4 µM. Further, the TGI in [13] was 68.5 µM and > 66.7 µM; in assay [14], > 77.6 µM; in assay [15] it was > 100 µM; in assay [16] it was > 100 µM; in assay [17] it was > 100 µM; in assay [18], > 100 µM. For the same compound, the TGI in [19] was 74.1 µM and 62.2 µM; in assay [20], > 100 µM.

Values taken from PubChem BioAssay (NCI).
